Experiments:
Type in all cases: cell-based
IL-6 (THP-1 cells) = assay: Inhibition of IL-6 in LPS-stimulated THP-1 monocytes (HTRF); conditions: Homo sapiens; for EC50: LPS 500 ng/mL, IL-6 by HTRF; for inhibition at 10 µM: LPS stimulated, IL-6, at 10 μM, read-out: percent inhibition at 10 μM (given for EC50 of >10 μM)
Method: Human monocyte cell line (THP-1 cells; Catalog # TIB-202, ATCC, Manassas, Va.) were cultured in Roswell Park Memorial Institute (RPMI) 1640 Medium (Catalog #21870-100, Buffalo, N.Y.) with 1% L-glutamine, 1% HEPES, 1% Sodium Pyruvate, 2% Sodium Bicarbonate supplemented with 100 units/mL penicillin, 50 μg/mL streptomycin, 2-mercaptoethanol (0.05 mM) [basal medium] and 10% fetal bovine serum (Catalog #16140089, Life Technologies, Carlsbad, Calif.) at 37° C. and 5% CO2.
THP-1 cells were cultured in basal media with 1% FBS for 24 hours before the start of the assay. Each compound was dissolved in DMSO as a 10 mM stock and used to prepare compound source plates. Serial dilution (1:3, 10-point dose-response curves starting from 10 μM) and compound transfer was performed using the ECHO 550 (Labcyte, Sunnyvale, Calif.) into 384-well white low volume assay plates (Greiner Bio-One) with appropriate DMSO backfill for a final DMSO concentration of 0.1%. THP-1 cells were plated at 5000 cells/well in the 384-well plates and incubated at 37° C. for 2 h. 500 ng/mL of LPS was added after 2 hours and cells were incubated for another 22 hours at 37° C. Plates were spun in a centrifuge for 1 minute at […] and a mixture of anti-IL6 XL665, and anti-IL6 Cryptate diluted in reconstitution buffer (Cisbio Inc.) was added to each well. Following incubation for 3 hrs at room temperature, Homogeneous Time-Resolved Fluorescence (HTRF) was measured using the Envision (Perkin Elmer) at 665 nm and […]. The ratio of fluorescence at 665 nm to 620 nm was used as a readout for IL6 quantification. All samples were processed in duplicate. Readings were normalized to DMSO treated cells and normalized activities were utilized for EC50 calculations using the dose-response log (inhibitor) vs. response -variable slope (four parameters) nonlinear regression feature available in GraphPad Prism 5.0 (or Dotmatics). For EC50 of >10 μM, the percent inhibition at 10 μM is provided.

[1] = tested on: Wnt activity (Sp5-Luc reporter, SW480 colon carcinoma cells); assay: Screening assay for Wnt activity: Sp5-Luc reporter gene assay in SW480 cells; conditions: Homo sapiens; for inhibition at 10 µM: 10 μM compound, read-out: percent inhibition at 10 μM (given for EC50 of >10 μM); for EC50: overnight incubation, 10-point dose-response from 10 μM
Source text: The screening assay for Wnt activity is described as follows. Reporter cell lines can be generated by stably transducing cancer cell lines (e.g., colon cancer) or primary cells (e.g., IEC-6 intestinal cells) with a lentiviral construct that includes a Wnt-responsive promoter driving expression of the firefly luciferase gene.
SW480 colon carcinoma cells were transduced with a lentiviral vector expressing luciferase with a human Sp5 promoter consisting of a sequence of eight TCF/LEF binding sites. SW480 cells stably expressing the Sp5-Luc reporter gene and a hygromycin resistance gene were selected by treatment with 150 μg/mL of hygromycin for 7 days. These stably transduced SW480 cells were expanded in cell culture and used for all further screening activities. Each compound was dissolved in DMSO as a 10 mM stock and used to prepare compound source plates. Serial dilution (1:3, 10-point dose-response curves starting from 10 μM) and compound transfer was performed using the ECHO 550 (Labcyte, Sunnyvale, Calif.) into 384-well white solid bottom assay plates (Greiner Bio-One) with appropriate DMSO backfill for a final DMSO concentration of 0.1%. For Sp5-Luc reporter gene assays, the cells were plated at 4,000 cells/well in 384-well plates with medium containing 1% fetal bovine serum and incubated overnight at 37° C. and 5% CO2. Following incubation, 20 μl of BrightGlo luminescence reagent (Promega) was added to each well of the 384-well assay plates. The plates were placed on an orbital shaker for 2 min and then luminescence was quantified using the Envision (Perkin Elmer) plate reader. Readings were normalized to DMSO only treated cells, and normalized activities were utilized for EC50 calculations using the dose-response log (inhibitor) vs. response -variable slope (four parameters) nonlinear regression feature available in GraphPad Prism 5.0 (or Dotmatics). For EC50 of >10 μM, the percent inhibition at 10 μM is provided.

SW480 colon cancer cells = assay: Cell viability assay (CellTiter-Blue), four days; conditions: Homo sapiens, 96 h; for EC50: CellTiter-Blue cell viability; for inhibition at 10 µM: read-out: percent inhibition at 10 μM (given for EC50 of >10 μM)
Method: Representative compounds were screened using the following assay procedure to assess the effect on cell viability as described below.
Each compound was dissolved in DMSO as a 10 mM stock and used to prepare compound source plates. Serial dilution (1:3, 8-point dose-response curves from 10 μM to 0.0045 μM) and compound transfer was performed using the ECHO 550 (Labcyte, Sunnyvale, Calif.) into 96-well clear bottom, black-walled plates (Corning-Costar).
Approximately 2×10^3 SW480 colon cancer cells were seeded into each well and allowed to incubate in the presence or absence of compound for four days at 37° C./5% CO2. Eight replicates of DMSO-treated cells served as controls and cells treated with compound were performed in duplicate.
After incubation, 20 μL of CellTiter-Blue (Promega) was added to each well allowed to incubate for approximately 3 hours. This reagent was a buffered solution which contains resazurin, metabolically active cells were able to reduce rezarurin (blue) into resorufin (pink) which was highly fluorescent. This measured fluorescence was used as a readout for cell viability.
After incubation, the plates were read at Ex 560 nm Em 590 nm (Cytation 3, BioTek). Dose-response curves were generated and EC50 concentration values were calculated using non-linear regression curve fit in the GraphPad Prism (San Diego, Calif.) or Dotmatics' Studies Software (Bishops Stortford, UK). For EC50 of >10 μM, the percent inhibition at 10 μM is provided.

EC50 (IL-6 (THP-1 cells)) [µM] | EC50 [1] [µM] | EC50 (SW480 colon cancer cells) [µM] | SMILES | inhibition at 10 µM (IL-6 (THP-1 cells)) [%] | inhibition at 10 µM [1] [%] | inhibition at 10 µM (SW480 colon cancer cells) [%]
> 10 | > 10 | > 10 | COc1cncc(-c2ccc3[nH]nc(-c4nc5c(N6CCCCC6)ccnc5[nH]4)c3n2)c1 [Compound 612, 5-(5-Methoxypyridin-3-yl)-3-(7-(piperidin-1-yl)-3H-imidazo[4,5-b]pyridin-2-yl)-1H-pyrazolo[4,3-b]pyridine] | 44.6 | 5.8 | 6.1
> 10 | > 10 | > 10 | Cn1cc(-c2ccc3[nH]nc(-c4nc5c(N6CCCCC6)ccnc5[nH]4)c3n2)c(CO)n1 [Compound 1134, (1-Methyl-4-(3-(7-(piperidin-1-yl)-3H-imidazo[4,5-b]pyridin-2-yl)-1H-pyrazolo[4,3-b]pyridin-5-yl)-1H-pyrazol-3-yl)methanol] | 12.6 | 4 | 18.1
0.004 | > 10 | > 10 | CN(C)c1cncc(-c2ccc3[nH]nc(-c4nc5c(-c6cccs6)ccnc5[nH]4)c3n2)c1 [Compound 343, N,N-dimethyl-5-(3-(7-(thiophen-2-yl)-3H-imidazo[4,5-b]pyridin-2-yl)-1H-pyrazolo [4,3-b]pyridin-5-yl)pyridin-3-amine] |  | 31.7 | 17.5
> 10 | > 10 | > 10 | c1ccc(COc2cncc(-c3ccc4[nH]nc(-c5nc6c(-c7ccncc7)ccnc6[nH]5)c4n3)c2)cc1 [Compound 582, 5-(5-(Benzyloxy)pyridin-3-yl)-3-(7-(pyridin-4-yl)-3H-imidazo[4,5-b]pyridin-2-yl)-1H-pyrazolo[4,3-b]pyridine] | 3.2 | 5.8 | 2.6
> 10 | > 10 | > 10 | CN(C)c1cncc(-c2ccc3[nH]nc(-c4nc5c(N6CCCCC6)ccnc5[nH]4)c3n2)c1 [Compound 175, N,N-dimethyl-5-(3-(7-(piperidin-1-yl)-3H-imidazo[4,5-b]pyridin-2-yl)-1H-pyrazolo [4,3-b]pyridin-5-yl)pyridin-3-amine] | 27.6 | 0 | 13.6
> 10 | > 10 | 0.171 | Fc1ccc(-c2ccnc3[nH]c(-c4n[nH]c5ccc(-c6cncnc6)nc45)nc23)cc1 [Compound 55, 3-(7-(4-Fluorophenyl)-3H-imidazo[4,5-b]pyridin-2-yl)-5-(pyrimidin-5-yl)-1H-pyrazolo[4,3-b]pyridine] | 43.9 | 20.2 | 
0.151 | > 10 | > 10 | CC(C)C(=O)Nc1cncc(-c2ccc3[nH]nc(-c4nc5c(-c6ccccc6F)ccnc5[nH]4)c3n2)c1 [Compound 65, N-(5-(3-(7-(2-fluorophenyl)-3H-imidazo[4,5-b]pyridin-2-yl)-1H-pyrazolo [4,3-b]pyridin-5-yl)pyridin-3-yl)isobutyramide] |  | 14.3 | 7.5
> 10 | > 10 | > 10 | c1cnc2[nH]c(-c3n[nH]c4ccc(-c5cn[nH]c5)nc34)nc2c1 [Compound 651, 3-(3H-Imidazo[4,5-b]pyridin-2-yl)-5-(1H-pyrazol-4-yl)-1H-pyrazolo[4,3-b]pyridine] | 0 | 12 | 3.1
> 10 | > 10 | > 10 | Cn1cc(-c2ccc3[nH]nc(-c4nc5c(-c6cc(F)cc(CNS(C)(=O)=O)c6)ccnc5[nH]4)c3n2)cn1 [Compound 764, N-(3-Fluoro-5-(2-(5-(1-methyl-1H-pyrazol-4-yl)-1H-pyrazolo[4,3-b]pyridin-3-yl)-3H-imidazo[4,5-b]pyridin-7-yl)benzyl)methanesulfonamide] | 24.2 | 20.9 | 0
> 10 | > 10 | > 10 | O=C(Cc1ccccc1)Nc1cncc(-c2ccc3[nH]nc(-c4nc5c(-c6ccncc6)ccnc5[nH]4)c3n2)c1 [Compound 122, 2-phenyl-N-(5-(3-(7-(pyridin-4-yl)-3H-imidazo[4,5-b]pyridin-2-yl)-1H-pyrazolo[4,3-b]pyridin-5-yl)pyridin-3-yl)acetamide] | 27 | 8.4 | 4.4
> 10 | > 10 | > 10 | c1cc(-c2ccc3c(c2)OCO3)c2nc(-c3n[nH]c4ccc(C5CCNCC5)nc34)[nH]c2n1 [Compound 1108, 3-(7-(Benzo[d][1,3]dioxol-5-yl)-3H-imidazo[4,5-b]pyridin-2-yl)-5-(piperidin-4-yl)-1H-pyrazolo[4,3-b]pyridine] | 30.1 | 9.3 | 0
1.85 | > 10 | > 10 | Cc1ccc(-c2ccnc3[nH]c(-c4n[nH]c5ccc(-c6cncc(NC(=O)C7CCCC7)c6)nc45)nc23)s1 [Compound 414, N-(5-(3-(7-(5-Methylthiophen-2-yl)-3H-imidazo[4,5-b]pyridin-2-yl)-1H-pyrazolo[4,3-b]pyridin-5-yl)pyridin-3-yl)cyclopentanecarboxamide] |  | 47 | 14.7
0.404 | > 10 | > 10 | Cc1cn(-c2ccnc3[nH]c(-c4n[nH]c5ccc(-c6cncc(OCCN(C)C)c6)nc45)nc23)cn1 [Compound 627, N,N-Dimethyl-2-((5-(3-(7-(4-methyl-1H-imidazol-1-yl)-3H-imidazo[4,5-b]pyridin-2-yl)-1H-pyrazolo[4,3-b]pyridin-5-yl)pyridin-3-yl)oxy)ethan-1-amine] |  | 22.4 | 14.8

Reference: patent US10329309B2, “3-(3H-imidazo[4,5-B]pyridin-2-yl)-1H-pyrazolo[4,3-B]pyridines and therapeutic uses thereof” (Samumed, LLC, priority 2015, dated 2019)
